Results reported in PubChem BioAssay (NCI).
Values after ≈ are worked out from the molar mass of the structure shown.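 Values below derive from 48-hour exposures of cells grown in 96-well plates, with endpoints linearly interpolated between the two concentrations bracketing the appropriate inhibition level. The concentration for 50% growth inhibition is given as GI50. TGI denotes the concentration required for complete inhibition of growth.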

How the values were obtained:
Assay in all cases: NCI anticancer screen, dose series, 48 h
[1] = system: M14 melanoma
[2] = system: EKVX NSCLC
[3] = system: SK-MEL-2 melanoma
[4] = system: HOP-92 NSCLC
[5] = system: IGROV1 ovarian
[6] = system: SF-295 CNS
[7] = system: A498 renal
[8] = system: NCI-H226 lung
[9] = system: DU-145 prostate
[10] = system: MDA-MB-435

SMILES	TGI [1]	TGI [2]	TGI [3] [µM]	TGI [4]	TGI [5]	TGI [6] [µM]	GI50 [7]	TGI [7]	TGI [8]	GI50 [1] [ng/mL]	GI50 [2]	GI50 [4]	GI50 [5]	GI50 [3] [µM]	GI50 [9] [µM]	TGI [9] [µM]	GI50 [6] [µM]	TGI [10] [µM]
O=C1OC(c2ccccc2)=N/C1=C/C=C/c1ccco1	> 100 µM	> 100 µM	> 100	> 100 µM	> 100 µM	> 100	–	–	–	–	–	–	–	–	–	–	–	–
OCCN1CN(CCO)CN(c2nc(N3CN(CCO)CN(CCO)C3)nc(N3CN(CCO)CN(CCO)C3)n2)C1	3.55 ng/mL	2.87 ng/mL	–	4.52 ng/mL	4.61 ng/mL	–	1.61 ng/mL	4.96 ng/mL	0.63 ng/mL	1.36 (≈ 2.26 nM)	1.16 ng/mL	1.85 ng/mL	1.55 ng/mL	–	–	–	–	–
O=C(O/N=C1/CCCC/C1=C\c1ccccc1)c1ccccc1	> 100 µM	> 100 µM	> 100	> 100 µM	0.78 µM	> 100	–	0.514 µM	> 100 µM	–	–	–	–	–	–	–	–	–
Ic1ccc(Nc2nc3nonc3nc2Nc2ccc(I)cc2)cc1	–	> 100 µM	0.692	0.458 µM	> 100 µM	0.893	0.0829 µM	0.418 µM	–	–	0.245 µM	0.0408 µM	0.46 µM	0.143	0.365	> 100	0.215	–
COc1ccc(OC)c(NC(=O)C(=O)NNC(=O)c2sc(NNC(C)=O)nc2C)c1	> 100 µM	> 100 µM	> 100	39.2 µM	> 100 µM	> 100	–	52.1 µM	> 100 µM	–	–	–	–	–	–	–	–	–
O=Cc1cc2c(cc1-c1c(C=O)ccc3c1OCO3)OCO2	> 10 µM	–	–	> 10 µM	> 10 µM	> 10	–	–	–	–	–	–	–	–	–	> 10	–	> 10
Cc1ccc(SC(C)/C=C/NNC2=NC(c3ccccc3)C(c3ccccc3)=NN2)cc1 (stereo not drawn)	> 100 µM	> 100 µM	> 100	66.1 µM	> 100 µM	> 100	–	> 100 µM	98.1 µM	–	–	–	–	–	–	–	–	–
CC(C)(C)[SiH]12(OC(C(F)(F)F)(C(F)(F)F)c3ccccc31)OC(C(F)(F)F)(C(F)(F)F)c1ccccc12	12.7 µM	14.1 µM	31.1	–	–	8.41	–	–	5.05 µM	–	–	–	–	–	–	–	–	–
COC(=O)c1cc2c3ccccc3n(C(C)=O)c2cn1	> 100 µM	> 100 µM	> 100	> 100 µM	> 100 µM	> 100	–	–	> 100 µM	–	–	–	–	–	–	–	–	–
